We go through 5 molecules from US20170204038A1, “3-(4-ISOBUTYL-2-METHYLPHENYL) PROPANAL AS PERFUME INGREDIENT” (Givaudan, S.A., priority 2013, published 2017).

Data set [1] is described as follows: Odour Value (ratio of vapour pressure to detection threshold concentration). The text has this: The compound of formula (I) is a particularly impactful perfume ingredient. The impact that a perfume ingredient exerts is related to its Odour Value. Odour Value is the ratio of vapour pressure to detection threshold concentration.
In another data set the test system is rat hepatocytes. As to the kind of experiment: In vitro metabolism study in rat hepatocytes in suspension (GC-MS / LC-MS). The settings on record: for Residual test compound: male, Sprague-Dawley, rat, 4 h, 100 μM. On the procedure:
In order to study in vitro metabolism in rat hepatocytes Lilial™ and the compound of the present invention are incubated in presence of rat hepatocytes in suspension. Decrease of Lilial™ and the compound of the present invention, and formation of the corresponding benzoic acid derivative may be analysed by GC-MS.
Cryopreserved hepatocytes from male rats (Sprague Dawley; Lifetechnologies) were defrozen, washed in Cyropreserved Hepatocytes Recovery Medium (CHRM; Lifetechnologies) and suspended in Williams E Medium (WEM; Lifetechnologies). Lilial™, or the compound of formula (I) (final concentration: 100 μM) were added to the cells (1×10^6 viable cells/ml) and suspensions were incubated up to 4 hours at 37° C. on a shaker in duplicate. Metabolism of testosterone was monitored as positive control. Decrease of the test compounds and formation of the corresponding benzoic acid derivative was determined by GC-MS analysis of methyl-esters formed after derivatisation with trimethylsilyl-diazomethane (Sigma-Aldrich) in methanol. The test compounds react with diazomethane yielding a methyl-ketone which was used for the quantification of Lilial™ and the compound of formula (I). Metabolism was stopped with ice cold 1 M HCl, samples were extracted with tert-butyl methyl ether (MTBE) and analysed by GC-MS. Incubations containing testosterone as control were also stopped with ice cold 1 M HCl, centrifuged to separate the cells, filtrated and the decrease of testosterone analysed by LC-MS. To quantify decrease of the test substances and formation of benzoic acid metabolites, calibration curves of reference materials (Lilial™ and the compound of formula (I), tert-butyl benzoic acid (Fluka) was prepared in hepatocyte incubation medium and analysed like the hepatocyte samples.

Another data set concerns fatty acid synthesis. The settings on record: in vitro; cited from earlier work.
A further data set concerns glucose synthesis. The settings on record: in vitro; cited from earlier work.
Data set [2] has as its system male rats. The note with it: cited from earlier work.
A further data set concerns primates. The note with it: cited from earlier work.
A further data set concerns dogs. The note with it: dog, in vivo; cited from earlier work.
The next data set has as its system guinea-pigs. The settings on record: cited from earlier work.
Data set [3] concerns male rats. The note with it: rat, in vivo; cited from earlier work.
In another data set the test system is mice. The note with it: cited from earlier work.

In the case of `Cc1cc(CC(C)C)ccc1CCC=O` [Compound of formula (I), 3-(4-isobutyl-2-methylphenyl)propanal], the “Odour Value” in data set [1] is listed as 559,071. In the data set on rat hepatocytes, this molecule returned a Residual test compound of 0 µM.

With `CC(C)(C)c1ccc(C(=O)O)cc1` [tert-butyl benzoic acid], in the data set on fatty acid synthesis, the “inhibition of fatty acid synthesis” value is on record as “inhibit”. Also, the “inhibition of glucose synthesis” value in the data set on glucose synthesis is listed as “inhibit”. Moreover, the testicular effects entry in the data set on male rats [2] is given as “cause testicular effects”.

Turning to `C[C@]12CC[C@H]3[C@@H](CCC4=CC(=O)CC[C@@]43C)[C@@H]1CC[C@@H]2O` [testosterone], the “Decrease of testosterone (positive control)” value in the data set with rat hepatocytes (rat hepatocytes, LC-MS) is recorded as “rapid decrease”.

In the case of `CC(C=O)Cc1ccc(C(C)C)cc1` (centres unmarked) [Cyclamen aldehyde, 3-p-cumenyl-2-methylpropionaldehyde], in [1], the “Odour Value” is reported as 21,986.

Consider `CC(C=O)Cc1ccc(C(C)(C)C)cc1` (centres unmarked) [Lilial™, 3-(4-tert-butylphenyl)-2-methylpropanal], for which the “Odour Value” in data set [1] is 32,978. Also, in the data set with rat hepatocytes, the Residual test compound came out at 0 µM. For the same molecule, in the data set on primates, the “effects in studies with primates” value was “No effects”. In addition, the “toxic effects on the reproductive organs” value in the data set on dogs and in the data set on male rats [3] was “toxic effects” each time. In addition, in the data set with guinea-pigs, the “effects in studies with guinea-pigs” value is on record as “No effects”. Besides, in the data set with mice, the “effects in studies with mice” value is “No effects”.
